One assay addresses T1, MMP-1 (Homo sapiens, UniProt P03956).
T1 sequence (P03956 100-469): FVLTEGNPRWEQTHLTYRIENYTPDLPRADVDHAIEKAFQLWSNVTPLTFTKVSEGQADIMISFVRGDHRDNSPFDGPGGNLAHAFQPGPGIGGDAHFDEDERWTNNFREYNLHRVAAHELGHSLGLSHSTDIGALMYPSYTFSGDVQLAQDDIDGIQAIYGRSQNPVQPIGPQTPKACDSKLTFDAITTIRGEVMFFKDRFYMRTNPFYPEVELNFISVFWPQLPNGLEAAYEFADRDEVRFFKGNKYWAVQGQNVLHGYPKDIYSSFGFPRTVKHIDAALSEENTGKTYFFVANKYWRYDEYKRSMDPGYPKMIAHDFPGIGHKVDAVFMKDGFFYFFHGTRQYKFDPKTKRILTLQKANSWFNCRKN
Briefly: MMP-1 selectivity assay. It counts as biochemical. The conditions noted are these: human MMP-1. The method, then: (§1) Selectivity of compound inhibition was evaluated against other proteases at concentrations between 0.4 and 200 μM. Activity against rabbit angiotensin-converting enzyme (ACE, Sigma) was assessed using 10 μM fluorogenic substrate Abz-Phe-Arg-Lys(Dnp)-P (Enzo Life Sciences) in 100 mM Tris-HCl pH 7, 50 mM NaCl, 10 μM Zn SO4. Activity against human matrix metalloproteases (MMP)-2 and MMP-9 was assessed in 50 mM HEPES pH 7.5, 10 mM CaCl2, 0.01% Triton X-100 using 4 μM fluorogenic substrate Mca-Pro-Leu-Gly-Leu-Dpa-Ala-Arg-NH2 (Enzo Life Sciences). Activity against MMP-1 and MMP-13 was assessed in 25 mM HEPES pH 7.5, 100 mM NaCl, 100 mM CaCl2, 0.0005% Brij using 7.5 μM fluorogenic substrate Mca-Lys-Pro-Leu-Gly-Leu-Dpa-Ala-Arg-NH2 (Sigma) for MMP-1 and 1.25 μM fluorogenic substrate Mca-Pro-Cha-Gly-Nva-His-Ala-Dpa-NH2 (Millipore) for MMP-13. Activity against human neutrophil elastase (HNE, Enzo Life Sciences) was assessed in 100 mM HEPES pH 7.5, 500 mM NaCl, 0.01% of Triton X-100 using 100 μM fluorogenic substrate MeOSuc-AAPV-AMC (Enzo Life Sciences).

The target of assay [1] is T2, human neutrophil elastase (HNE) (Homo sapiens, UniProt P08246).
T2 construct: purchased Enzo Life Sciences
T2 sequence (P08246 30-267): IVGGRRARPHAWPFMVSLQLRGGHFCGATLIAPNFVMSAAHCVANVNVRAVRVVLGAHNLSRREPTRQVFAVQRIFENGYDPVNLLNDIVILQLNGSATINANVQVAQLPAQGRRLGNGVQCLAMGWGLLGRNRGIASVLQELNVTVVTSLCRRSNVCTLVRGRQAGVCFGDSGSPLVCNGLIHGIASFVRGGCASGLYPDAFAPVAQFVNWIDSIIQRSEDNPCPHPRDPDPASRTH
Briefly: HNE selectivity assay. It counts as biochemical. The method, then: as §1

The target of the next assay is T3, LasB WT (PAO1 reference) (Pseudomonas aeruginosa, UniProt P14756).
T3 construct: endogenous in cells; host or cells: P. aeruginosa strains of WT lasB genotype, culture supernatant
The assay can be described thus: LasB variant inhibition, Abz-AGLA-Nba assay with culture supernatant: WT. It counts as biochemical, P. aeruginosa. From the text:
(§2) Compounds 12 and 16 were discovered as a result of optimizing potency against the LasB protein expressed from the wild-type (WT) reference strain P. aeruginosa PAO1. To understand the relative prevalence of the WT LasB protein versus other variants in clinical respiratory P. aeruginosa strains, the full-length lasB gene was amplified by PCR from 255 clinical isolates (obtained from CF sputum samples). […] Most changes were identified in the mature peptide, however some occurred in the propeptide domain, which could affect LasB processing (marked in italics in Table 4).
(§3) LasB inhibition assays were performed using purified LasB enzyme (1 ng/well) for compound screening or using culture supernatants (prepared as described in the ECR assay) for testing LasB variants. Hydrolysis of the fluorogenic peptide substrate 2-aminobenzoyl-Ala-Gly-Leu-Ala-4-nitrobenzylamide (Abz-AGLA-Nba; Peptide International) in 50 mM Tris-HCl (pH 7.4), supplemented with 2.5 mM CaCl2 was followed using an Envision microplate reader (PerkinElmer) at 315 nm excitation and 430 nm emission. […] IC50 values were determined from Hill plots using Dotmatics Studies ELN software. For the mechanism of inhibition studies, hydrolysis rates were measured in the presence of variable concentrations of substrate and inhibitor, and the inhibition constant (Ki) was determined using Dixon plot analysis.[31]

Another assay addresses T4, LasB S241G (Pseudomonas aeruginosa, UniProt P14756, S241G).
T4 construct: endogenous in cells; host or cells: P. aeruginosa clinical CF isolate, culture supernatant
Briefly: LasB variant inhibition, culture supernatant: S241G. It counts as biochemical, P. aeruginosa.
Source text: as §2, §3

The next assay relates to activated IL-1β. The assay can be described thus: Mouse P. aeruginosa lung infection model, activated IL-1β in lung homogenates. It counts as in vivo. The conditions noted are these: C57Bl/6 mice, 10 and 30 mg/kg IV at 1 and 4 h post-infection, 24 h; p < 0.0001. The method, then:
(§4) To investigate if compounds 12 and 16 were able to engage the LasB target in vivo, in the context of a P. aeruginosa lung infection, and to determine the consequences of that inhibition, immunocompetent C57Bl/6 mice were infected intranasally with P. aeruginosa PAO1 and treated with two doses of inhibitors, 10 and 30 mg/kg, administered IV at 1 and 4 h post-infection (Figure 5A). A control group of PAO1-infected animals treated with vehicle and a group of animals infected with the isogenic ΔlasB strain were included in the study. Mice were euthanized 24 h post-infection and their lung homogenates assayed for activated mature IL-1β (using the IL-1 reporter assay) and bacterial numbers (by CFU enumeration).
Infection experiments were approved by the Institutional Animal Care and Use Committee of Emory University. To prepare the bacterial inoculum, P. aeruginosa PAO1 (or its ΔlasB derivative) was grown in Luria broth with shaking at physiologic (37 °C) temperature for 18 h to maximally express LasB (at late log phase). […] Active IL-1β was quantified by adding 100 μL of cell-free homogenate to IL-1β responsive HEK IL-1R-lux reporter cells. Activity was assayed by luminescence measured with D-luciferin substrate (Steady-Luc, Biotium) on a multimode reader (PerkinElmer) and expressed as relative luminescence units (RU). […] Statistics were calculated by ANOVA with a Dunnett post-test.

The next assay concerns P. aeruginosa PAO1. The assay can be described thus: Mouse P. aeruginosa lung infection model, bacterial numbers (CFUs) in lung homogenates. The conditions noted are these: C57Bl/6 mice, 24 h. In kind it is in vivo. The procedure:
as §4
Infection experiments were approved by the Institutional Animal Care and Use Committee of Emory University. To prepare the bacterial inoculum, P. aeruginosa PAO1 (or its ΔlasB derivative) was grown in Luria broth with shaking at physiologic (37 °C) temperature for 18 h to maximally express LasB (at late log phase). Bacteria were then harvested, washed, and diluted in sterile phosphate-buffered saline (PBS) for delivery of 10^9 colony-forming units (CFUs) in 40 μL. For infection, female C57Bl/6 mice (five/group) were sedated using isofluorane and the bacterial suspension was slowly administered via micropipette between the nostrils and the animals were allowed to aspirate the inoculum via the normal breathing process. Compounds 12 and 16 were administered in PBS via injection (100 μL volume) to achieve doses of 10 and 30 mg/kg. The mice were euthanized 24 h post-infection and the lungs were excised. Active IL-1β was quantified by adding 100 μL of cell-free homogenate to IL-1β responsive HEK IL-1R-lux reporter cells. Activity was assayed by luminescence measured with D-luciferin substrate (Steady-Luc, Biotium) on a multimode reader (PerkinElmer) and expressed as relative luminescence units (RU). CFU was enumerated by dilution plating on Luria agar. Statistics were calculated by ANOVA with a Dunnett post-test.

The mark [2] stands for this setting: 30 mg/kg IV at 1 and 4 h post-infection.

pIC50: −log10 of the molar value. A value given as a limit tells only on which side of the number the result lay.

T3 sequence (P14756 198-498): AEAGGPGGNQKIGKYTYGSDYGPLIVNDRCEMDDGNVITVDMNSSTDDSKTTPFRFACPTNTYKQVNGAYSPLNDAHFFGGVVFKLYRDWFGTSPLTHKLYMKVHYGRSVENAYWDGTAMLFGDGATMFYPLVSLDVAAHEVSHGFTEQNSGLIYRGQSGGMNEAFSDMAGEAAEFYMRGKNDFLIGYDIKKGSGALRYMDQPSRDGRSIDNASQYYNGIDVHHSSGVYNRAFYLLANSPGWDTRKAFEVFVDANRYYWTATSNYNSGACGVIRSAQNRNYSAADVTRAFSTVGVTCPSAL
T4 sequence (P14756 198-498 S241G): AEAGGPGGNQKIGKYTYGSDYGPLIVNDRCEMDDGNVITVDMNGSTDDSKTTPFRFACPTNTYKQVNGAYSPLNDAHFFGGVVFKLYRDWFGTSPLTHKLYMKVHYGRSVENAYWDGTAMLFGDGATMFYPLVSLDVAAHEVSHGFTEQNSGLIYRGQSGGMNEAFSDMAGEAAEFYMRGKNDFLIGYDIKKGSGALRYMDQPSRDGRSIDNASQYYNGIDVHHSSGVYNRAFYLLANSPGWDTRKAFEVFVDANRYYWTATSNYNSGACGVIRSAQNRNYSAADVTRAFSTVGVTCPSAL

One may read the pIC50 as the negative decadic logarithm of the IC50, by convention in mol/L. Regarding `COc1cc2sc(CNC(=O)C3(CC(=O)O)Cc4ccccc4C3)nc2cc1OCCC[N+](C)(C)C` [Compound 12], the pIC50 against MMP-1 is less than 4.00; in assay [1] it was less than 3.70; against LasB WT (PAO1 reference), 6.65; on LasB S241G, 6.66. Besides, in the assay on activated IL-1β, the “decrease in activated IL-1β in lung homogenates vs PAO1-infected control group” value is “up to 4 fold”. The “log reduction in bacterial numbers (CFUs) in lung” value came to 0.48 log with P. aeruginosa PAO1 (10 mg/kg IV at 1 and 4 h post-infection); 0.69 log in the assay with P. aeruginosa PAO1 (setting [2]).

Take `COc1cc2sc(CNC(=O)C3(CC(=O)O)Cc4cc(F)c(F)cc4C3)nc2cc1OCCC[N+](C)(CCO)CCO` [Compound 16]: the negative-log IC50 (pIC50) is less than 4.00 against MMP-1, less than 3.70 in assay [1], 6.75 against LasB WT (PAO1 reference) and 6.69 on LasB S241G. The “decrease in activated IL-1β in lung homogenates vs PAO1-infected control group” value in the assay on activated IL-1β was “up to 4 fold”. In addition, the “log reduction in bacterial numbers (CFUs) in lung” value with P. aeruginosa PAO1 (setting [2]) is recorded as 0.47 log.

The record behind these values is article PMC9926489, “Chemical Optimization of Selective Pseudomonas aeruginosa LasB Elastase Inhibitors and Their Impact on LasB-Mediated Activation of IL-1β in Cellular and Animal Infection Models” (ACS Infectious Diseases, 2023).
